How the values were obtained:
[1] = target: T1, Renin (Homo sapiens, UniProt P00797); assay: Renin-inhibitory activity, Method I (inhibition of Angiotensin I formation, RIA); format: biochemical; settings: Table 2; 37°C, 4 hours, 1.25 mg/ml; read-out: Rate of inhibiting the formation of Angiotensin I determined by Method I
T1 sequence (P00797 67-406): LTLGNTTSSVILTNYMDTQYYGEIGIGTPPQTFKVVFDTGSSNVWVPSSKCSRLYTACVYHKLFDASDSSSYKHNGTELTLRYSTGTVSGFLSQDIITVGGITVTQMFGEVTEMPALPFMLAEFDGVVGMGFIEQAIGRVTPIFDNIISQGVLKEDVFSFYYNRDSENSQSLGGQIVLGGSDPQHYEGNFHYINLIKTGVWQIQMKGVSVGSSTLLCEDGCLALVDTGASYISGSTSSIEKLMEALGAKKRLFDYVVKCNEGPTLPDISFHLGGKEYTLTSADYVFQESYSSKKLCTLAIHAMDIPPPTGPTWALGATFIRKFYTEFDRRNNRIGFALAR
Experimental: Renin (see E. Haas et al. Circulation Research, Vol. 19, p. 739, 1966 and Vol. 31, p. 65, 1972) was incubated in Angiotensinogen at 37° C. for 2 to 6 hours. Similarly, renin was incubated under the same conditions in the presence of 0.313 to 2.5 mg/ml. of each of the test compounds listed above. The amount of Angiotensin I was measured by radioimmunoassay (RIA) (E. Haber et al., J. Clin. Endocrinol., Vol. 29, p. 1349, 1969), and made the renin activity.
(§1) The results are shown in Table 1 (the rate of inhibiting the formation of Angiotensin I, as determined by Method I, when the plasma was incubated at 37° C. for 2, 4 and 6 hours respectively), and Table 2 (the rate of inhibiting the formation of Angiotensin I when the plasma was incubated at 37° C. for 4 hours, with the compound concentration of 1.25 mg/ml.)

[2] = target: T2, High renin plasma (Canis lupus familiaris, UniProt Q6DYE7); assay: Renin-inhibitory activity, Method II (high renin plasma of dog, inhibition of Angiotensin I formation); format: biochemical; settings: Table 2; 37°C, 4 hours, 1.25 mg/ml; read-out: Rate of inhibiting the formation of Angiotensin I determined by Method II
T2 construct: High renin plasma prepared by constriction of the renal artery of a dog anesthetized with Nembutal; from tissue; host or cells: plasma of a dog with constricted renal artery
T2 sequence (Q6DYE7 66-403): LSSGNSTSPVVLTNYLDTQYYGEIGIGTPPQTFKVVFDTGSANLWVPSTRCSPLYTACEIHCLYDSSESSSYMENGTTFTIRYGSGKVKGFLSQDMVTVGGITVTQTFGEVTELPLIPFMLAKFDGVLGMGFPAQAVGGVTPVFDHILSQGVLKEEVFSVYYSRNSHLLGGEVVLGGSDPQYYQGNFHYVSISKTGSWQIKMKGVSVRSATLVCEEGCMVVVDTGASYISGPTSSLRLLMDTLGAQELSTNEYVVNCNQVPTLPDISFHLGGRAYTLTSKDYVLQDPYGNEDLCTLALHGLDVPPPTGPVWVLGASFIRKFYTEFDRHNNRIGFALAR
Experimental: High renin plasma prepared by constriction of the renal artery of a dog anesthetized with Nembutal (the plasma which when incubated at 37°40 C. for 6 hours, yields 30 to […]. of Angiotensin I) was incubated at 37° C. for 2 to 6 hours in the same way as in Method I, and also under the same conditions in the presence of 1.25 mg/ml. of each of the test compounds.
as §1

[3] = test system: renal hypertensive rats; assay: Antihypertensive activity in renal hypertensive rats, i.m. (Table 3); format: in vivo, rat; settings: 30 mg/kg/day i.m.
Experimental: (§2) An aqueous solution or suspension in peanut oil of each test compound as administered intramuscularly (i.m.) or orally (p.o.) at a dose of 30 to 100 mg/kg (body weight)/day once every morning over the period of 6 to 7 days.
(§3) The blood pressure of each rat was measured daily before and 5 hours after each administration. Furthermore, the blood pressure was measured every morning after drug withdrawal over a period of 3 to 6 days.
(§4) Test compounds (1)-(4) decreased the blood pressure of renal hypertensive rats with a dose of 30 mg/kg/day i.m.. […] The antihypertensive rats with a dose of 100 mg/kg/day p.o..

[4] = test system: renal hypertensive rats; assay: Antihypertensive activity in rats, p.o. (Table 4); format: in vivo, rat; settings: 100 mg/kg/day p.o.
Experimental: as §2, §3, §4

[5] = test system: plasma cholesterol level; assay: Cholesterol-lowering activity in rats (modified Greenberg method); format: in vivo, rat; settings: 100 mg/Kg oral once a day, 5 consecutive days
Experimental: The effect of each of the test compounds on the plasma cholesterol level was examined in rats according to a slightly modified form of the C. M. Greenberg et al. method described in Am. J. Physiol., Vol. 202 (1961), p. 732. Rats were treated once a day with a 100 mg/Kg oral dose for 5 consecutive days instead of 7 days.

[6] = 1st day, 0 h (immediately before administration)
[7] = 1st day, 5 hours after administration
[8] = 2nd day, 5 hours after administration
[9] = 3rd day, 0 h (immediately before administration)
[10] = 3rd day, 5 hours after administration
[11] = 4th day, 0 h (immediately before administration)
[12] = 4th day, 5 hours after administration
[13] = 5th day, 0 h (immediately before administration)
[14] = 5th day, 5 hours after administration
[15] = 6th day, 0 h (immediately before administration)
[16] = 6th day, 5 hours after administration
[17] = 2nd day, 0 h (immediately before administration)

inhibition at 1250 µg/mL [1]	inhibition at 1250 µg/mL [2]	Structure (SMILES)	Changes of blood pressure after drug withdrawal ([3]; 1st day after withdrawal)	Changes of blood pressure [3, 6]	Changes of blood pressure [3, 7]	Changes of blood pressure after drug withdrawal ([3]; 2nd day after withdrawal)	Changes of blood pressure [3, 8]	Changes of blood pressure after drug withdrawal ([3]; 3rd day after withdrawal)	Changes of blood pressure [3, 9]	Changes of blood pressure [3, 10]	Changes of blood pressure [3, 11]	Changes of blood pressure [3, 12]	Changes of blood pressure [3, 13]	Changes of blood pressure [3, 14]	Changes of blood pressure [3, 15]	Changes of blood pressure [3, 16]	Cholesterol-lowering activity [5]	further results
< 10%	25%	CCCCCC=CCC=CCC=CCC=CCCCC(=O)OCC(COP(=O)(O)OCCN)OC(=O)CCCCCCCCCCCCCCCCC (racemic) [(a), rac-2-Octadecanoyl-3-(eicosa-5,8,11,14-tetraenoyl)glycero-1-phosphoryl ethanolamine, reference compound]	-14 mmHg	0 mmHg	-26 mmHg	-3 mmHg	-35 mmHg	-1 mmHg	-5 mmHg	-29 mmHg	-5 mmHg	-34 mmHg	-13 mmHg	-33 mmHg	-13 mmHg	-43 mmHg	0%	antihypertensive effect, oral administration (in words) [4]: did not show such an effect; Changes of blood pressure [4, 6]: 0 mmHg; Changes of blood pressure [4, 7]: +2 mmHg; Changes of blood pressure [4, 17]: +1 mmHg; Changes of blood pressure [4, 8]: +5 mmHg; Changes of blood pressure [4, 9]: +2 mmHg; Changes of blood pressure [4, 10]: -2 mmHg; Changes of blood pressure [4, 11]: +1 mmHg; Changes of blood pressure [4, 13]: +2 mmHg; Changes of blood pressure [4, 14]: +2 mmHg; Changes of blood pressure [4, 15]: +1 mmHg; Changes of blood pressure ([4]; 7th day, 0 h (immediately before administration)): +1 mmHg; Changes of blood pressure ([4]; 7th day, 5 hours after administration): +2 mmHg
< 10%	25%	CCC=CCC=CCC=CCCCCCCCC(=O)OCC(COP(=O)(O)OCCN)OC(=O)CCCCCCCCCCCCCCCCC (racemic) [(b), rac-2-Octadecanoyl-3-(octadeca-9,12,15-trienoyl)glycero-1-phosphoryl ethanolamine, reference compound]	-11 mmHg	0 mmHg	-32 mmHg	-2 mmHg	-25 mmHg	-1 mmHg	-8 mmHg	-34 mmHg	-7 mmHg	-39 mmHg	-8 mmHg	-44 mmHg	-10 mmHg	-47 mmHg	0%	Changes of blood pressure [3, 17]: -4 mmHg

From patent publication US3985875A, “ω-(N-acylamino)alkylphosphoryl ethanolamines, pharmaceutical compositions containing them, and their uses” (Dainippon Pharmaceutical Co., Ltd., priority 1974, dated 1976)
